Common to all, as to assay: NCI anticancer screen, dose series, 48 h
The subject of assay [1] is A549.
In assay [2] the test system is COLO 205.
For assay [3], the system named is HL-60.
Assay [4] has as its system HT-29.
The test system of assay [5] is LOX IMVI.
The test system of assay [6] is MCF7.
In assay [7] the test system is MDA-MB-435.
Assay [8] relates to Malme-3M.
Assay [9] concerns NCI-H460.
The test system of assay [10] is OVCAR-5.
Assay [11] has as its system PC-3.
In assay [12] the test system is RPMI-8226.
For assay [13], the system named is SF-268.
Assay [14] concerns SF-539.
The subject of assay [15] is SK-MEL-28.
The subject of assay [16] is SK-MEL-2.
Assay [17] concerns SR.
Assay [18] concerns SW-620.
The test system of assay [19] is TK-10.
The subject of assay [20] is UACC-62.

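Protocol summary: plate cells (96-well), add compound at 5 concentrations, incubate 48 h, interpolate endpoints linearly. GI50 = concentration required for 50% inhibition of growth.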 Active and inactive are the calls of the source. Rule as the data show it: active = GI50 up to about 1.1 µM and inactive = higher. Residues, ends and D or L forms follow the SMILES beside them.

Regarding `Cc1nc(N)c(N2CCN(S(=O)(=O)N(Cc3ccccc3)Cc3ccccc3)CC2)c(O)n1`, the GI50 is 82.6 µM (inactive) in [1]; 23.3 µM (inactive) in assay [2]; 57.7 µM (inactive) in assay [3]; 26.8 µM (inactive) in assay [4]; > 100 µM (inactive) in assay [5]; 72.3 µM (inactive) in assay [6]. Besides, the GI50 in assay [7] is 38.5 µM (inactive); in assay [8], 25.1 µM (inactive); in assay [9], 40.6 µM (inactive); in [10] it was 28 µM (inactive); in assay [11] it was 20.4 µM (inactive); in [12], > 100 µM (inactive). For the same compound, the GI50 in [13] was 28.6 µM (inactive); in assay [14], 23.2 µM (inactive); in assay [15], 17.6 µM (inactive); in assay [16], 55.2 µM (inactive); in [17], > 100 µM (inactive); in assay [18], 69.7 µM (inactive). Moreover, in assay [19], the GI50 was 26.5 µM (inactive).

With `O=C(c1ccccc1)c1c2ccccn2c2cccc[n+]12`, the GI50 in assay [1] was 82.4 µM (inactive); in [2], 20.1 µM (inactive); in assay [3] it was 79.6 µM (inactive); in assay [4], > 100 µM (inactive); in assay [5], > 100 µM (inactive); in [6], > 100 µM (inactive). The GI50 in assay [7], in [8], in assay [9], in assay [10], in [11] and in [12] was > 100 µM (inactive) in each case. Also, the GI50 in assay [13], in assay [14], in assay [15], in [16], in [17] and in assay [18] was > 100 µM (inactive) in each case. For the same compound, the GI50 in [19] and in assay [20] was > 100 µM (inactive) throughout.

On to `CC12CCC(C(=O)OC1=O)C2(C)C` (stereo unspecified), for which the GI50 in [2] is > 100 µM (inactive); in [3] it was 32.1 µM (inactive); in [4], > 100 µM (inactive); in assay [5], > 100 µM (inactive); in assay [6], > 100 µM (inactive); in [7], > 100 µM (inactive). The GI50 in [8], in assay [9], in [10], in [11], in assay [12] and in [13] was > 100 µM (inactive) each time. Also, the GI50 in [14] is > 100 µM (inactive); in [15] it was > 100 µM (inactive); in assay [16], 28.7 µM (inactive); in assay [17], 0.628 µM (active); in assay [18] it was > 100 µM (inactive); in assay [19] it was > 100 µM (inactive). In addition, the GI50 in [20] is > 100 µM (inactive).

As to `COC(=O)c1cc2c(c(C(=O)OC)c1)CCC2`, the GI50 in [1] was > 100 µM (inactive); in assay [3] it was 70.6 µM (inactive); in assay [4], 40.6 µM (inactive); in [5], 82.4 µM (inactive); in [6], > 100 µM (inactive); in [7], > 100 µM (inactive). For the same compound, the GI50 was > 100 µM (inactive) in assay [8]; > 100 µM (inactive) in assay [9]; > 100 µM (inactive) in [10]; 68.5 µM (inactive) in assay [11]; > 100 µM (inactive) in [12]; > 100 µM (inactive) in assay [13]. Further, the GI50 in assay [14] is > 100 µM (inactive); in [15], > 100 µM (inactive); in assay [16] it was > 100 µM (inactive); in [17], 30.3 µM (inactive); in [18], > 100 µM (inactive); in assay [19], > 100 µM (inactive).

Regarding `COC1=CC(=O)c2nc3ccccc3c3ccnc1c23`, the GI50 was 1.12 µM (inactive) in [1]; 6.64 µM (inactive) in assay [2]; 2.38 µM (inactive) in assay [3]; 3.24 µM (inactive) in assay [4]; 0.565 µM (active) in [5]; 1.95 µM (inactive) in [6]. In addition, the GI50 was 0.187 µM (active) in assay [7]; 1.58 µM (inactive) in assay [8]; 0.434 µM (active) in assay [9]; 12.5 µM (inactive) in [10]; 1.81 µM (inactive) in [11]; 1.83 µM (inactive) in [12]. The GI50 in assay [13] was 3.94 µM (inactive); in assay [14] it was 2.92 µM (inactive); in assay [15], 19.7 µM (inactive); in assay [16], 5.64 µM (inactive); in [17], 1.56 µM (inactive); in [18], 1.03 µM (active). Also, the GI50 in assay [19] is 19.3 µM (inactive); in assay [20], 1.07 µM (active).

On to `CCC(C)C(NC(=O)C(CC(C)C)NC(=O)CNC(=O)C(NC(=O)C1CCCN1C(=O)C(CC(C)C)NC(=O)C(N)Cc1ccccc1)C(C)CC)C(=O)NC(CC(C)C)C(N)=O` (stereo unspecified) (H-FLPIGLIL-NH2; configuration not given here), for which the GI50 in assay [1], in assay [2], in assay [3], in assay [4], in assay [5] and in [6] was > 75 µM (inactive) each time. The GI50 in assay [7], in assay [8], in [10], in assay [11], in [12] and in assay [13] was > 75 µM (inactive) throughout. Also, the GI50 in assay [14], in assay [15], in assay [16], in assay [17], in [18] and in [19] was > 75 µM (inactive) throughout. Further, the GI50 in [20] was > 75 µM (inactive).

In the case of `CCOc1ccc(NCC2CC/C(=C\c3ccc(O)cc3)C2=O)cc1` (stereo unspecified), the GI50 was 21.2 µM (inactive) in [1]; 13.6 µM (inactive) in [2]; 2.22 µM (inactive) in assay [3]; 15.6 µM (inactive) in [4]; 12.2 µM (inactive) in assay [5]; 3.61 µM (inactive) in assay [6]. The GI50 is 18.4 µM (inactive) in assay [7]; 14.9 µM (inactive) in assay [8]; 23.2 µM (inactive) in [9]; 15.6 µM (inactive) in [10]; 16.9 µM (inactive) in [11]; 4.02 µM (inactive) in [12]. Further, the GI50 in assay [13] is 15.8 µM (inactive); in assay [14], 19.1 µM (inactive); in assay [15], 15.5 µM (inactive); in assay [17], 2.19 µM (inactive); in [18], 3.03 µM (inactive); in assay [19] it was 12.7 µM (inactive). The GI50 in assay [20] is 19.7 µM (inactive).

For the compound `N#CC12CC(C=O)=C(N)C1(C#N)CC(C=O)=C2N` (stereo unspecified), the GI50 in [1] is > 100 µM (inactive); in assay [2], > 100 µM (inactive); in assay [3], 23.7 µM (inactive); in [4], > 100 µM (inactive); in assay [5], 34.4 µM (inactive); in assay [6], 58.9 µM (inactive). For the same compound, the GI50 is 36.1 µM (inactive) in [7]; 50.8 µM (inactive) in assay [8]; > 100 µM (inactive) in assay [10]; 72.3 µM (inactive) in [11]; 52.6 µM (inactive) in [12]; 31.1 µM (inactive) in [13]. The GI50 in assay [14] was 81.8 µM (inactive); in assay [15], 38.5 µM (inactive); in assay [16] it was 24.1 µM (inactive); in assay [17] it was 37.7 µM (inactive); in assay [18] it was 49.7 µM (inactive); in assay [19], > 100 µM (inactive). Further, the GI50 in [20] is 36.2 µM (inactive).

On to `COC(CN(C)C(=S)Nc1cccc2ccccc12)OC`, for which the GI50 in [1], in assay [2], in assay [3], in [4], in [5] and in assay [6] was > 10 µM (inactive) in each case. Also, the GI50 in assay [7], in assay [8], in assay [9], in assay [11], in assay [12] and in [13] was > 10 µM (inactive) throughout. Moreover, the GI50 in assay [14], in assay [15], in [16], in assay [17], in assay [18] and in assay [19] was > 10 µM (inactive) throughout. For the same compound, in [20], the GI50 is > 10 µM (inactive).

For `C=CCn1c(-c2ccc([N+](=O)[O-])cc2)cs/c1=N\C(P(=O)(O)O)P(=O)(O)O`, the GI50 in assay [1] was > 100 µM (inactive); in assay [2] it was > 100 µM (inactive); in [3], 0.0383 µM (active); in [4], > 100 µM (inactive); in assay [5], > 100 µM (inactive); in assay [6] it was > 100 µM (inactive). The GI50 in assay [7], in assay [8], in assay [9], in assay [10], in assay [11] and in assay [12] was > 100 µM (inactive) in each case. The GI50 in [13], in [14], in [15], in assay [17], in assay [18] and in [19] was > 100 µM (inactive) each time. In addition, the GI50 in assay [20] is > 100 µM (inactive).

(Values after ChEMBL document CHEMBL1201862, “PubChem BioAssay data set” (2004).)
